Where a name gives a salt, the structure may show the parent alone. Read-outs that look alike come from different tables or passages of the source.
Legend:
Assay type in all cases: biochemical
JNK1 = target: T1, JNK1 (Homo sapiens, UniProt P45983); assay: JNK1 protein kinase assay; conditions: for remaining activity at 10 µM: 10 μM compound; for residual kinase activity JNK1: 1 μm compound; for remaining activity at 1 µM: 1 μM compound
T1 construct: All protein kinases were of human origin and encoded full length proteins, unless indicated otherwise; made in house
T1 sequence (P45983 1-384 isoform P45983-2): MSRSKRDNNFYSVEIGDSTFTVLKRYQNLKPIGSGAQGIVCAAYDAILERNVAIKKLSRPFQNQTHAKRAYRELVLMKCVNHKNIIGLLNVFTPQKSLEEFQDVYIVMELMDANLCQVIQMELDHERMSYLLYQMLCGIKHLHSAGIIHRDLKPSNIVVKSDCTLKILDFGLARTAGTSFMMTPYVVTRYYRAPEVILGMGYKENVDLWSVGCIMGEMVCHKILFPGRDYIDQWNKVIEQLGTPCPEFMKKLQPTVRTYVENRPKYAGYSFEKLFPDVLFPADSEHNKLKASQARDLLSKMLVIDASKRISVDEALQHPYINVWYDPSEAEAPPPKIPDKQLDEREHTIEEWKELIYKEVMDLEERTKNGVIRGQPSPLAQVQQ
Text: (§1) All protein kinases were of human origin and encoded full length proteins, unless indicated otherwise. They were either expressed as glutathione S-transferase (GST) fusion proteins in Escherichia Coli or as hexahistidine (His6)-tagged proteins in insect Sf21 cells. GST fusion proteins were purified by affinity chromatography on glutathione-Sepharose, and His6-tagged proteins on nickel/nitriloacetate-agarose. The procedures for expressing some of the protein kinases used herein have been detailed previously.^8,9 The following sections outline the DNA vectors synthesised and the procedures used to express and purifying protein kinases that have not been reported previously.
(§2) In order to produce activated forms of Aurora B and Aurora C, insect Sf21 cells were incubated for 1 h with the protein phosphatase inhibitor okadaic acid (50 nM). JNK isoforms were activated with MKK4 and MKK7, MNK2 with p38α MAPkinase; PKBα, PKBβ, with PDK1, and ERK1 with MKK1. To activate CDK2, bacterial pellets expressing cyclin A2 and CDK2 were mixed together, lyse and purified on glutathione Sepharose. The GST-tags were removed by cleavage with PreScission protease and the CDK2-cyclin A2 complex purified by chromatography on SP-Sepharose. It was then activated with CAK1/CDK7 followed by chromatography on nickel-nitrilotriacetate agarose to remove CAK1/CDK7, which binds to this column by virtue of its C-terminal His6 tag. All the other protein kinases were active as expressed.
(§3) All assays (25.5 μl) were carried out at room temperature (21° C.) and were linear with respect to time and enzyme concentration under the conditions used. Assays were performed for 30 min using Multidrop Micro reagent dispensers (Thermo Electron Corporation, Waltham, Mass. 02454, USA) in a 96-well format. The concentration of magnesium acetate in the assays was 10 mM and the [γ-33P] ATP (800 cpm/pmol) was used at 5, 20 or 50 μM as indicated, in order to be at or below the Km for ATP for each enzyme. Protein kinases assayed at 5 μM ATP were: —ERK1, ERK8, PKBα, MARK3, Aurora C. Protein kinases assayed at 20 μM ATP were: —JNK1, PDK1, CHK1, CHK2, CDK2 and Aurora B. Protein kinases assayed at 50 μM ATP were: —MNK2, IKKepsilon and TBK1.
(§4) The assays were initiated with MgATP, stopped by addition of 5 μl of 0.5 M orthophosphoric acid and spotted on to P81 filterplates using a unifilter harvester (PerkinElmer, Boston, Mass. 02118, USA). The IC50 values of inhibitors were determined after carrying out assays at 10 different concentrations of each compound.
(§5) Unless stated otherwise, enzymes were diluted in 50 mM Tris/HCl pH 7.5, 0.1 mM EGTA, 1 mg/ml BSA, 0.1% (v/v) 2-mercaptoethanol and assayed in 50 mM Tris/HCl pH 7.5, 0.1 mM EGTA, 0.1% (v/v) 2-mercaptoethanol.

RSK1 = target: T2, RSK1 (Homo sapiens, UniProt Q15418); assay: RSK1 protein kinase assay; conditions: for remaining activity at 10 µM: 10 μM compound; for residual kinase activity RSK1: 1 μm compound; for remaining activity at 1 µM: 1 μM compound
T2 construct: All protein kinases were of human origin and encoded full length proteins, unless indicated otherwise; made in house
T2 sequence (Q15418 whole entry): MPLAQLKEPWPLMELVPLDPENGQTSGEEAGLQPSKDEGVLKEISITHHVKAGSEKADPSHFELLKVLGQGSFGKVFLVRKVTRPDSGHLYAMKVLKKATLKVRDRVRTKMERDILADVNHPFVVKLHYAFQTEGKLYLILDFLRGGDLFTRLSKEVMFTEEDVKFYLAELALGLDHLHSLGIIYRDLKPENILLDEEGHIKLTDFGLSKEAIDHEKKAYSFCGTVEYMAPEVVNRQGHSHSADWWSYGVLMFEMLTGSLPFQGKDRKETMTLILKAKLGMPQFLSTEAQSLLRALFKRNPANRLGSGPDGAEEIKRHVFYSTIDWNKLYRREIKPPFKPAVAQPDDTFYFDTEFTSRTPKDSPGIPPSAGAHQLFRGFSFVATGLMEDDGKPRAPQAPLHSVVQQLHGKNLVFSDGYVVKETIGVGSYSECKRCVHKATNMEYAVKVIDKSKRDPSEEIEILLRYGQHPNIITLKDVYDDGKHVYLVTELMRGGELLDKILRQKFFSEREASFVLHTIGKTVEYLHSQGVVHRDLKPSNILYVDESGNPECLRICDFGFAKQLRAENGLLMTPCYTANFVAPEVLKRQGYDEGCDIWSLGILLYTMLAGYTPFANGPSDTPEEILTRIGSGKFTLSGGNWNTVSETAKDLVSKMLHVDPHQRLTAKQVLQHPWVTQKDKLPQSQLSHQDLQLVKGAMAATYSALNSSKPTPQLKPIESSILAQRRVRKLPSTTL
Text: as §1, §3, §4, §5

PRAK = target: T3, PRAK (Homo sapiens, UniProt Q8IW41); assay: PRAK protein kinase assay; conditions: for remaining activity at 10 µM: 10 μM compound; for residual kinase activity PRAK: 1 μm compound; for remaining activity at 1 µM: 1 μM compound
T3 construct: All protein kinases were of human origin and encoded full length proteins, unless indicated otherwise; made in house
T3 sequence (Q8IW41 1-473): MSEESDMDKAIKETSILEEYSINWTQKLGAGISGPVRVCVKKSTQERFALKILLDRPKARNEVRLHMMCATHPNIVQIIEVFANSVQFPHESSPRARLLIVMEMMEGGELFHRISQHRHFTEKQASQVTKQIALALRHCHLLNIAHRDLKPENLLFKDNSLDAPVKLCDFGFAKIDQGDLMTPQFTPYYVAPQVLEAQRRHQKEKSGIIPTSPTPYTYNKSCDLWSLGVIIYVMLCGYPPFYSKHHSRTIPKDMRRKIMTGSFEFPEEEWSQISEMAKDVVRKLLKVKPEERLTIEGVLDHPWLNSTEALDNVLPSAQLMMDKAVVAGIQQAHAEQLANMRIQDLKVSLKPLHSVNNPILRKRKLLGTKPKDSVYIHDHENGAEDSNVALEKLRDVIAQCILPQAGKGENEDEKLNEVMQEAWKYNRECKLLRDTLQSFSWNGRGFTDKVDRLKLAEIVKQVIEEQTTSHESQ
Text: as §1, §3, §4, §5

CHK1 = target: T4, CHK1 (Homo sapiens, UniProt O14757); assay: CHK1 protein kinase assay; conditions: for remaining activity at 10 µM: 10 μM compound; for residual kinase activity CHK1: 1 μm compound; for remaining activity at 1 µM: 1 μM compound
T4 construct: All protein kinases were of human origin and encoded full length proteins, unless indicated otherwise; made in house
T4 sequence (O14757 1-476): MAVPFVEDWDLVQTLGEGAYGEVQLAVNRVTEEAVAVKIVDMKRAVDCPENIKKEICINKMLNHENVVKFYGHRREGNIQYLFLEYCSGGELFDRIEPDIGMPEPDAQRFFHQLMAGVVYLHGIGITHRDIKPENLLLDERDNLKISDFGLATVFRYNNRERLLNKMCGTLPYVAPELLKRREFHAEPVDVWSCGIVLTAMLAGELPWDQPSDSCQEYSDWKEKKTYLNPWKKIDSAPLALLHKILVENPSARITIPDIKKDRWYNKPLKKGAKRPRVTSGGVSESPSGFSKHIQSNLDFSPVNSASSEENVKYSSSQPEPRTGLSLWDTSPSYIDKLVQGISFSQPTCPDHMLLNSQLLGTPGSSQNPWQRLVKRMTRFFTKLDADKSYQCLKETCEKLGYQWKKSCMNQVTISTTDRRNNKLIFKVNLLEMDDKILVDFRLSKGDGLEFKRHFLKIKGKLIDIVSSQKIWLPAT
Text: as §1, §3, §4, §5

CDK2-Cyclin A = target: T5, CDK2-Cyclin A (Homo sapiens, UniProt P24941); assay: CDK2-Cyclin A protein kinase assay; conditions: for remaining activity at 10 µM: 10 μM compound; for residual kinase activity CDK2-Cyclin A: 1 μm compound; for remaining activity at 1 µM: 1 μM compound
T5 construct: All protein kinases were of human origin and encoded full length proteins, unless indicated otherwise; GST (cleaved yes); made in house; host or cells: E. coli
Text: as §1
The following proteins were expressed in E. coli: —CHK2[5-543], cyclin-dependent protein kinase 2 (CDK2), MAP kinase-interacting kinase 2 (MNK2), extra-cellular signal-regulated kinase 1 (ERK1).
as §2, §3, §4, §5

DYRK1A = target: T6, DYRK1A (Homo sapiens, UniProt Q13627); assay: DYRK1A protein kinase assay; conditions: for remaining activity at 10 µM: 10 μM compound; for residual kinase activity DYRK1A: 1 μm compound; for remaining activity at 1 µM: 1 μM compound
T6 construct: All protein kinases were of human origin and encoded full length proteins, unless indicated otherwise; made in house
Text: as §1, §3, §4, §5

Src = target: T7, Src (Homo sapiens, UniProt P12931); assay: Src protein kinase assay; conditions: for remaining activity at 10 µM: 10 μM compound; for residual kinase activity Src: 1 μm compound; for remaining activity at 1 µM: 1 μM compound
T7 construct: All protein kinases were of human origin and encoded full length proteins, unless indicated otherwise; made in house
T7 sequence (P12931 whole entry): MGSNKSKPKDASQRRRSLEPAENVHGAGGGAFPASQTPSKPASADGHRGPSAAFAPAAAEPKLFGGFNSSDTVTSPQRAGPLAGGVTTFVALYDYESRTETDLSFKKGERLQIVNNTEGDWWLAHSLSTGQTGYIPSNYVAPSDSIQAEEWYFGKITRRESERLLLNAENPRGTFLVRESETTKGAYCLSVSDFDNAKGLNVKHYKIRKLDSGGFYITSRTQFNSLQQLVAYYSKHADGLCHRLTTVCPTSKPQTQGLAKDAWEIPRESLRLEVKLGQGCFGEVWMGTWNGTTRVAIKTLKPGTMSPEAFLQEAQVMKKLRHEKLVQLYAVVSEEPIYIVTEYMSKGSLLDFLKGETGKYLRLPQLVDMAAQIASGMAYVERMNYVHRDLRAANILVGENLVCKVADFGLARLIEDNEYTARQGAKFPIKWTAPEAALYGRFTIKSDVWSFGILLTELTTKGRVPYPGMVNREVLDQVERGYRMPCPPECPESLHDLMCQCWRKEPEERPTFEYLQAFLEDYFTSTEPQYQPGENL
Text: as §1, §3, §4, §5

[1] = read-out: residual kinase activity JNK1
[2] = read-out: residual kinase activity RSK1
[3] = read-out: residual kinase activity PRAK
[4] = read-out: residual kinase activity CHK1
[5] = read-out: residual kinase activity CDK2-Cyclin A
[6] = read-out: residual kinase activity DYRK1A
[7] = read-out: residual kinase activity Src
[8] = JNK1, 20 μM ATP, read-out: residual kinase activity
[9] = RSK1, read-out: residual kinase activity
[10] = PRAK, read-out: residual kinase activity
[11] = CHK1, 20 μM ATP, read-out: residual kinase activity
[12] = CDK2-Cyclin A, 20 μM ATP, read-out: residual kinase activity
[13] = DYRK1A, read-out: residual kinase activity
[14] = Src, read-out: residual kinase activity

| Structure (SMILES) | remaining activity at 10 µM (JNK1; [1]) [%] | residual kinase activity JNK1 (JNK1) [%] | remaining activity at 10 µM (RSK1; [2]) [%] | residual kinase activity RSK1 (RSK1) [%] | remaining activity at 10 µM (PRAK; [3]) [%] | residual kinase activity PRAK (PRAK) [%] | remaining activity at 1 µM (JNK1; [8]) [%] | remaining activity at 10 µM (JNK1; [8]) [%] | remaining activity at 1 µM (RSK1; [9]) [%] | remaining activity at 10 µM (RSK1; [9]) [%] | remaining activity at 1 µM (PRAK; [10]) [%] | remaining activity at 10 µM (PRAK; [10]) [%] | remaining activity at 1 µM (CHK1; [11]) [%] | remaining activity at 10 µM (CHK1; [11]) [%] | remaining activity at 1 µM (CDK2-Cyclin A; [12]) [%] | remaining activity at 10 µM (CDK2-Cyclin A; [12]) [%] | remaining activity at 1 µM (DYRK1A; [13]) [%] | remaining activity at 10 µM (DYRK1A; [13]) [%] | remaining activity at 1 µM (Src; [14]) [%] | remaining activity at 10 µM (Src; [14]) [%] | other results |
| --- | --- | --- | --- | --- | --- | --- | --- | --- | --- | --- | --- | --- | --- | --- | --- | --- | --- | --- | --- | --- | --- |
| O=C(NCCCNc1nc(Nc2cccc(F)c2)ncc1Br)C1CCC1 [Compound A, cyclobutanecarboxylic acid {3-[5-bromo-2-(3-fluoro-phenylamino)-pyrimidin-4-ylamino]-propyl}-amide, reference compound] | 9 | 46 | 9 | 27 | 31 | 65 | – | – | – | – | – | – | – | – | – | – | – | – | – | – | remaining activity at 10 µM (CHK1; [4]): 0%; residual kinase activity CHK1 (CHK1): 9%; remaining activity at 10 µM (CDK2-Cyclin A; [5]): 0%; residual kinase activity CDK2-Cyclin A (CDK2-Cyclin A): 1%; remaining activity at 10 µM (DYRK1A; [6]): 38%; residual kinase activity DYRK1A (DYRK1A): 74%; remaining activity at 10 µM (Src; [7]): 12%; residual kinase activity Src (Src): 53% |
| O=C(NCCCNc1nc(Nc2cccc(F)c2)ncc1C1CC1)C1CCC1 [Example 23, Cyclobutanecarboxylic acid {3-[5-cyclopropyl-2-(3-fluoro-phenylamino)-pyrimidin-4-ylamino]-propyl}-amide] | 73 | 91 | 24 | 47 | 96 | 93 | 91 | 73 | 47 | 24 | 93 | 96 | 51 | 14 | 17 | 2 | 78 | 56 | 77 | 50 | remaining activity at 10 µM (CHK1; [4]): 14%; residual kinase activity CHK1 (CHK1): 51%; remaining activity at 10 µM (CDK2-Cyclin A; [5]): 2%; residual kinase activity CDK2-Cyclin A (CDK2-Cyclin A): 17%; remaining activity at 10 µM (DYRK1A; [6]): 56%; residual kinase activity DYRK1A (DYRK1A): 78%; remaining activity at 10 µM (Src; [7]): 50%; residual kinase activity Src (Src): 77% |
| O=C(NCCCNc1nc(Nc2cccc(N3CCCC3=O)c2)ncc1C1CC1)c1cccs1 [Example 47, Thiophene-2-carboxylic acid (3-{5-cyclopropyl-2-[3-(2-oxo-pyrrolidin-1-yl)-phenylamino]-pyrimidin-4-ylamino}-propyl)-amide. Hydrochloride salt] | – | – | – | – | – | – | 92 | 86 | 45 | 10 | 70 | 76 | 70 | 30 | 70 | 29 | 84 | 78 | 80 | 67 | – |
| O=C(NCCCNc1nc(Nc2cccnc2)ncc1C1CC1)c1cccs1 [Example 50, Thiophene-2-carboxylic acid {3-[5-cyclopropyl-2-(pyridin-3-ylamino)-pyrimidin-4-ylamino]-propyl}-amide] | – | – | – | – | – | – | 94 | 87 | 49 | 20 | 64 | 64 | 65 | 21 | 33 | 5 | 88 | 57 | 84 | 50 | – |
